Molecules are shown by their SMILES.

The test system of experiment [1] is colorectal (HCT116 and SW620) cell line models. Description: MTS growth inhibition assay. To be noted: increasing concentrations of 5-FU between 0 and 100 μmol/L; both colorectal cancer cell lines. It is filed as cell-based. As for the experimental part: The Cell Titer AQueous MTS assay (Promega) is carried out according to the manufacturers guidelines. […] The combination effect is determined by the combination index (CI) method utilizing Calcusyn software (Biosoft, Ferguson, Mo.). Fraction affected (FA) is calculated from the percent growth inhibition: FA=(100−% growth inhibition)/100.
Test compounds are evaluated for their antitumor activity in colorectal cancer cells using the MTS growth inhibition assay. HCT116 and SW620 cells are exposed to increasing concentrations of each agent for 72 hours and growth inhibition is directly compared to vehicle-treated controls. The NSCLC cell lines A549 and H1299 are exposed to increasing concentrations of each agent for 72 hours and growth inhibition is directly compared to vehicle-treated controls.
MTS growth inhibition assays are performed to evaluate the effectiveness of the test compounds alone and in combination with the fluoropyrimidine thymidylate synthase (TS) inhibitor 5-fluorouracil (5-FU) at inhibiting the growth of colorectal (HCT116 and SW620) cell line models. […] Simultaneous treatment with increasing concentrations of 5-FU and a test compound at fixed concentrations of 25 μmol/L is determined.
A general note: Tetrazolium assays rely on reduction of a dye to a coloured formazan, in cell work by metabolically active cells.

Experiment [2] deals with colorectal (HCT116), breast (MCF-7) and non-small cell lung (H1299, A549, H358 and H460) cell line models. Description: Colony forming assay. It is filed as cell-based. To be noted: increasing concentrations of FUdR between 0.5 and 2.5 μmol/L; all cell lines evaluated. As for the experimental part:
Colony forming assay showing the ability of colon (SW620, HCT116), non-small cell lung (A549, H460, H1299 and H358) and breast (MCF7) cancer cells to survive and proliferate following transient 24 hour exposure to test compounds, FUdR and combinations are determined. Specifically, cells are seeded at densities between 50 and 100 cells/well in 24-well plates. Twenty-four hours later, cells are treated with increasing concentrations of a test compound, a fixed dose of FUdR and combinations of these. After 24 hours, drug is removed, cells are rinsed and allowed to outgrow for 10-14 days. At the conclusion of the outgrowth, cells are fixed in 60% ice cold methanol and stained with 0.1% crystal violet, scanned and counted. Data is presented as percentage of untreated controls (mean±SD). Fraction affected and combination indexes are calculated according to the method of Chou and Talalay where <1 is indicative of a synergistic drug interaction.
Colony forming assays are performed to evaluate the effectiveness of test compounds alone and in combination with the fluoropyrimidine thymidylate synthase (TS) inhibitor fluorodeoxyuridine (FUdR) at reducing cancer cell viability in colorectal (HCT116), breast (MCF-7) and non-small cell lung (H1299, A549, H358 and H460) cell line models. […]

For the molecule `O=c1[nH]cc(F)c(=O)[nH]1` [Compound 5-FU, 5-fluorouracil], the growth inhibition entry in experiment [1] is given as “dose-dependent increases in growth inhibition”.
With `O=c1[nH]c(=O)n([C@H]2C[C@H](O)[C@@H](CO)O2)cc1F` [FUdR, fluorodeoxyuridine], the colonies formed result in experiment [2] is given as “dose-dependent decreases in colonies formed”.

The record behind these values is patent US11124485B2, “Deoxyuridine triphosphatase inhibitors containing cyclopropano linkage” (CV6 Therapeutics (NI) Limited, priority 2015, dated 2021).
